Like-named read-outs stand apart in the source and are kept apart here.
Key:
Type in all cases: physicochemical
[1] = Equilibrium solubility in simulated fluids and water at 37° C.; settings: for pH (24 hr): dimesylate; for solubility at 24 h: above calibration range
Method: The solubility Compound A⋅2MSA, Patterns A, B and I, was measured in water, fasted state simulated gastric fluid (FaSSGF) and fasted state simulated intestinal fluid (FaSSIF) at 37° C. by slurrying in the respective media for 24 hours. 1.5 mL of the fluid was stirred at 37° C. About 5 mg of the specified solid was added to FaSSIF and a thin slurry was immediately formed. As a test, approximately 80 and 60 mg of Pattern A was added to 1.5 mL of water and FaSSGF, respectively without formation of a slurry. Therefore, about 10 mg of the desired Pattern was added to water and FaSSGF solutions. The samples were allowed to stir at 37° C. for 24 hrs. The stir bars were removed from the FaSSIF vials and the solids allowed to settle for 0.5 hours at 37° C. The supernatant/solutions were syringe filtered and recovered for analysis by HPLC as well as for pH measurement.

[2] = Dynamic Vapor Sorption (DVS)
Method: Dynamic Vapor Sorption (DVS) was done using a DVS Intrinsic 1. The sample is loaded into a sample pan and suspended from a microbalance. A typical sample mass for DVS measurement is 25 mg. Nitrogen gas bubbled through distilled water provides the desired relative humidity.
A typical measurement comprises the steps: • 1—Equilibrate at 50% RH • 2-50% to 2%. (50%, 40%, 30%, 20%, 10% and 2%) • a. Hold minimum of 5 mins and maximum of 240 minutes at each humidity. The pass criteria is less than 0.002% change • 3-2% to 95% (2%, 10%, 20%, 30%, 40%, 50%, 60%, 70%, 80%, 90%, 95%) • a. Hold minimum of 5 mins and maximum of 240 minutes at each humidity. The pass criteria is less than 0.002% change • 4-95% to 2% (95%, 80%, 70%, 60%, 50%, 40%, 30%, 20%, 10%, 2%) • a. Hold minimum of 5 mins and maximum of 240 minutes at each humidity. The pass criteria is less than 0.002% change • 5-2% to 50% (2%, 10%, 20%, 30%, 40%, 50%) • a. Hold minimum of 5 mins and maximum of 240 minutes at each humidity. The pass criteria is less than 0.002% change Dynamic Vapor Sorption Isotherm Plots of Solid Forms of Compound A⋅2MSA

[3] = Karl-Fischer titration for water determination; settings: dimesylate
Method: Karl-Fischer titration for water determination was done using a Mettler Toledo C20S Coulometric KF Titrator equipped with a current generator cell with a diaphragm, and a doubleplatinum-pin electrode. Aquastar™ CombiCoulomat fritless reagent was used in both the anode and cathode compartments. Samples of approximately 0.03-0.10 g were dissolved in the anode compartment and titrated until the solution potential dropped below 100 mV. Hydranal 1 wt. % water standard is used for validation prior to sample analysis.

[4] = Stability of XRPD pattern on drying
Method: Short term slurries were carried out at two temperatures in 14 solvents. About 25 mg solid was added to a 2 mL vial followed by 0.70 mL of solvent. If all solids dissolved, more solid was added until a slurry was formed within reason. Slurries were stirred at constant temperature for four days (ambient temperature, 21-23° C.; or high temperature, 50° C.). After stirring for four days, solids were allowed to settle and were then recovered for XRPD analysis. XRPD analysis was performed on the wet cake, and if a new pattern was observed, the sample was dried in a vacuum oven at 50° C. for a minimum of 4 hours, then the dried sample was analyzed by XRPD.
Stability on Drying: A sample of Pattern B was prepared on an XRPD sample holder and analysed by XRPD to create a baseline. The disk was then left in a vacuum oven at 50° C. under static vacuum for 3 days. On the third day, the sample was removed from the oven and the “dry” pattern was recorded immediately.
(§1) Compound A⋅2MSA (Pattern A) was slurried in EtOH overnight at room temperature (ca. 16 hours). […] The bulk was dried in a vacuum oven at 50° C. under dynamic vacuum for 4.5 hours. The dried solids were removed from the oven and a “dry” XRPD analysis was collected.

[5] = Storage at ambient conditions (XRPD); settings: 21-22° C., 10-40% RH, a week
Method: Characterization after storage under ambient conditions: Pattern B was left at ambient conditions (21-22° C., 10-40% RH) for a week then characterized by)(RFD, TGA/DSC, and water content measured by Karl-Fischer titration. […] The water content was confirmed by KF titration which yielded a value of 4.20 wt. %.
Compound A⋅2MSA (Pattern A, 0.2622 g) was added to a 20 mL vial with a stir bar. Fifteen volumes (3.93 mL) of EtOH was added and the slurry was stirred overnight (˜20 hours). The slurry was sampled to confirm the correct pattern was generated, then the solids were collected by filtration. The resultant yellow solid was dried in a vacuum oven at 50° C. under dynamic vacuum for 2 hours, then under static vacuum overnight (˜16 hours) to yield 0.2015 g (77% yield). The in-situ sample drawn was dried for 3 hours then the solid was used for characterization by solution ^1H-NMR spectroscopy and simultaneous TGA/DSC. The bulk was dried overnight and used for stand-alone DSC, and thermal treatment.
as §1
Compound A⋅2MSA (Pattern A, 0.2659 g) was added to a 20 mL vial with a stir bar. Twenty-five volumes (6.65 mL) of ACN was added and the slurry was stirred overnight (˜20 hours). The slurry was sampled to confirm the correct pattern was generated, then the solids were collected by filtration. The resultant yellow solid was dried in a vacuum oven at 50° C. under dynamic vacuum for 2 hours, then under static vacuum overnight (˜16 hours) to yield 0.2255 g (85% yield). The sample drawn was dried for 3 hours then the solid was used for characterization by solution ^1H-NMR spectroscopy and simultaneous TGA/DSC. The bulk was dried overnight and used for stand-alone DSC.

CS(=O)(=O)O.CS(=O)(=O)O.N#Cc1cccc(-c2ccc3ncc(-c4cc(F)cc(F)c4)c(N4CCC(N)CC4)c3c2)c1O [Pattern B, 3-(4-(4-aminopiperidin-1-yl)-3-(3,5-difluorophenyl)quinolin-6-yl)-2-hydroxybenzonitrile dimesylate]
comments ([1]; FaSSGF (pH 1.70), 24 hrs): dissolved
pH (24 hr) ([1]; FaSSGF (pH 1.70)): 1.80
solubility at 24 h ([1]; FaSSGF, 37 °C, pH 1.7, fassgf or other biorelevant, thermodynamic from solid, FaSSGF (pH 1.70), 24 hrs, mg of Compound A (free base), read-out: Concentration): > 6570 µg/mL
comments ([1]; FaSSIF (pH 6.48), 24 hrs): disproportionated
pH (24 hr) ([1]; FaSSIF (pH 6.48)): 6.02
solubility thermodynamic at 24 h ([1]; FaSSIF, 37 °C, pH 6.48, fassif, thermodynamic from solid, FaSSIF (pH 6.48), 24 hrs, mg of Compound A (free base), read-out: Concentration): 11 µg/mL
solubility at 24 h ([1]; water, 37 °C, water, thermodynamic from solid, water, 24 hrs, mg of Compound A (free base), read-out: Concentration): > 6250 µg/mL
comments ([1]; water, 24 hrs): dissolved
pH (24 hr) ([1]; water): 3.08
XRPD form after the DVS experiment ([2]; 2-95% RH, dimesylate): no change in form
reversible water uptake (DVS) ([2]; between 2% and 95% Relative Humidity (RH), dimesylate): 3.2 % w/w
total mass difference (DVS) ([2]; over the 2-95% RH range): 3.2 wt. %
mass change (DVS) ([2]; range of 10-80% RH): 1.3 wt. %
Water Content [3]: 4.2% w/w
XRPD pattern upon drying ([4]; solids from short term slurries, vacuum oven at 50° C., minimum of 4 hours, dimesylate): stable upon drying
XRPD pattern after drying ([4]; vacuum oven at 50° C. under static vacuum for 3 days): matched Pattern B
XRPD pattern after storage at ambient conditions [5]: identical to Pattern B

Source: patent US12617767B2, “Crystalline forms of somatostatin modulators” (Crinetics Pharmaceuticals, Inc., priority 2019, dated 2026)
